From ChEMBL document CHEMBL1909046, “DrugMatrix in vitro pharmacology data”

Legend:
[1] = biological target: Voltage-gated inwardly rectifying potassium channel KCNH2 (Homo sapiens, UniProt Q12809); conditions: hek293; further: in other assays of this panel Not Active means under 50% inhibition at 10 µM
Vasopressin V1a receptor = Vasopressin V1a receptor (Homo sapiens, UniProt P37288); type: cell membranes, Membrane; conditions: hek293; further: in other assays of this panel Not Active means under 50% inhibition at 10 µM
Cytochrome P450 2C19 = Cytochrome P450 2C19 (Homo sapiens, UniProt P33261); conditions: bti-tn-5b1-4; further: in other assays of this panel Not Active means under 50% inhibition at 10 µM
Cytochrome P450 3A4 = Cytochrome P450 3A4 (Homo sapiens, UniProt P08684); conditions: bti-tn-5b1-4; further: in other assays of this panel Not Active means under 50% inhibition at 10 µM
[2] = biological target: T1, Neuropeptide Y receptor type 2 (Homo sapiens, UniProt P49146); type: cell membranes, Membrane; conditions: kan-ts; further: in other assays of this panel Not Active means under 50% inhibition at 10 µM
T1 sequence (P49146 whole entry): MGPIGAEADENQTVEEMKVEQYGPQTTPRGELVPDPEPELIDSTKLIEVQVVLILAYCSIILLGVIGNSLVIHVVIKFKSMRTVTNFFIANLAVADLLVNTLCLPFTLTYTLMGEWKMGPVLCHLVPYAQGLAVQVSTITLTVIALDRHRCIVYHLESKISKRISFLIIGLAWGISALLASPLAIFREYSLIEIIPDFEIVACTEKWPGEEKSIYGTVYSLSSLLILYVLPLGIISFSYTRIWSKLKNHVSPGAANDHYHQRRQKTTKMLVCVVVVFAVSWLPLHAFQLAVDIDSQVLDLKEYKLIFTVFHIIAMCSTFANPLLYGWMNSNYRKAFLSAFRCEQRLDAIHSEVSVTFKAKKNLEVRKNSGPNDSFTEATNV

Cytochrome P450 1A2 = biological target: T2, Cytochrome P450 1A2 (Homo sapiens, UniProt P05177); conditions: bti-tn-5b1-4; further: in other assays of this panel Not Active means under 50% inhibition at 10 µM
T2 sequence (P05177 whole entry): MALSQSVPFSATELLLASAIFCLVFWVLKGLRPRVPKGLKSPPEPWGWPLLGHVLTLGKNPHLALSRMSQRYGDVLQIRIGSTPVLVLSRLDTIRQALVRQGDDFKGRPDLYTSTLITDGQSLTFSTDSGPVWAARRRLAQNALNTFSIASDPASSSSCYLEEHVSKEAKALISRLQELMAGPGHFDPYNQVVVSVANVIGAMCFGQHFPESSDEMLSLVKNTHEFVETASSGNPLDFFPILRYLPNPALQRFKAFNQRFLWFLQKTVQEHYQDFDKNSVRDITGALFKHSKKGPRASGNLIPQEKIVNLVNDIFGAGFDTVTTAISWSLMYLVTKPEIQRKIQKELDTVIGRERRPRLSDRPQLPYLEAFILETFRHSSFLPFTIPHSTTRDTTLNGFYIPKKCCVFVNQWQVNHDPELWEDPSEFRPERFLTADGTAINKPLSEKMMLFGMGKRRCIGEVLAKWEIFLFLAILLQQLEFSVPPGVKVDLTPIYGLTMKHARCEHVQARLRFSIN

Acetylcholinesterase = Acetylcholinesterase (Homo sapiens, UniProt P22303); test: DRUGMATRIX: Acetylcholinesterase enzyme inhibition (substrate: acetylthiocholine); type: cell-based, HEK293; conditions: hek293; Not Active = under 50% inhibition at 10 µM
Cytochrome P450 2A6 = biological target: T3, Cytochrome P450 2A6 (Homo sapiens, UniProt P11509); conditions: bti-tn-5b1-4; further: in other assays of this panel Not Active means under 50% inhibition at 10 µM
T3 sequence (P11509 whole entry): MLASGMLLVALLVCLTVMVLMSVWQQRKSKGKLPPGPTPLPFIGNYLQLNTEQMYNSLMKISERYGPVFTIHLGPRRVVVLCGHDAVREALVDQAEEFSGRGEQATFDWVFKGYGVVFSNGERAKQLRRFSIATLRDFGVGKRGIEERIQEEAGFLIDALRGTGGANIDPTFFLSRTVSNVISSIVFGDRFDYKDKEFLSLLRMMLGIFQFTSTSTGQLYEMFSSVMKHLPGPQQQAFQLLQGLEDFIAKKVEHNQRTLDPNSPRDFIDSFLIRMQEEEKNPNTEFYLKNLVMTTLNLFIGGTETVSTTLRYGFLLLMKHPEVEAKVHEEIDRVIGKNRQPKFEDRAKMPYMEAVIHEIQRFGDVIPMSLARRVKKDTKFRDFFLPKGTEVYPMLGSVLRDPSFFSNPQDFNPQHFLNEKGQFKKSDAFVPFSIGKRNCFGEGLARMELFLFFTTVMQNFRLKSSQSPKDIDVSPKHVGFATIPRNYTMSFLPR

Thromboxane-A synthase = biological target: T4, Thromboxane-A synthase (Homo sapiens, UniProt P24557); test: biochemical; type: tissue-based, Platelet; conditions: platelet
T4 sequence (P24557 whole entry): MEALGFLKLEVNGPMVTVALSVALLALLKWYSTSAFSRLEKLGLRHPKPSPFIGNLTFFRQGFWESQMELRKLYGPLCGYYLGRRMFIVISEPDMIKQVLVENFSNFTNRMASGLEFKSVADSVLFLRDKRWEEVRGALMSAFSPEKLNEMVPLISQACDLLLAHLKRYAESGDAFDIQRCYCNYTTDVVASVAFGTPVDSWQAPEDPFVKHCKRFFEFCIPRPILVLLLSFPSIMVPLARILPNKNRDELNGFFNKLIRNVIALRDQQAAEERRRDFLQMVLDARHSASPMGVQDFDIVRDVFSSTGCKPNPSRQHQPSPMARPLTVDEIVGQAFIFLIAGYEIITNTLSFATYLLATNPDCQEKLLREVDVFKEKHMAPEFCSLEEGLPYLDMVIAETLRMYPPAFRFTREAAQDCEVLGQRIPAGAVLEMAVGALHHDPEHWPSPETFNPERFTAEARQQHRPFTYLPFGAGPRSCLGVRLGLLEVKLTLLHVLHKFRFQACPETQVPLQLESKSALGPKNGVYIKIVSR

Carbonic anhydrase 2 = Carbonic anhydrase 2 (Homo sapiens, UniProt P00918); test: DRUGMATRIX: Carbonic Anhydrase II enzyme inhibition (substrate: 4-Nitrophenyl acetate (4-NPA)); type: tissue-based, Erythrocyte; conditions: erythrocyte; Not Active = under 50% inhibition at 10 µM

Sequence of Vasopressin V1a receptor (P37288 whole entry): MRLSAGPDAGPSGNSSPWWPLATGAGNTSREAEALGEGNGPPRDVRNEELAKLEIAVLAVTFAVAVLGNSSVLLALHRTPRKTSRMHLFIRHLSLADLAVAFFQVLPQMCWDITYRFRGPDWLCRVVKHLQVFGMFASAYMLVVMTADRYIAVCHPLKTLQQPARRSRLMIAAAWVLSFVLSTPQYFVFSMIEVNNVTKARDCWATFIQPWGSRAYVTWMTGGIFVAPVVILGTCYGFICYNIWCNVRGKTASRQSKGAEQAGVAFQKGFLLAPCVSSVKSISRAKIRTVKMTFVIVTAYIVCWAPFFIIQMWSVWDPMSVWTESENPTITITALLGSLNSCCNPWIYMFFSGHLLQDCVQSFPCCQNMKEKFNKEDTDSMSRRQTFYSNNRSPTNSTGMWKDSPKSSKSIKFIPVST
Sequence of Cytochrome P450 3A4 (P08684 whole entry): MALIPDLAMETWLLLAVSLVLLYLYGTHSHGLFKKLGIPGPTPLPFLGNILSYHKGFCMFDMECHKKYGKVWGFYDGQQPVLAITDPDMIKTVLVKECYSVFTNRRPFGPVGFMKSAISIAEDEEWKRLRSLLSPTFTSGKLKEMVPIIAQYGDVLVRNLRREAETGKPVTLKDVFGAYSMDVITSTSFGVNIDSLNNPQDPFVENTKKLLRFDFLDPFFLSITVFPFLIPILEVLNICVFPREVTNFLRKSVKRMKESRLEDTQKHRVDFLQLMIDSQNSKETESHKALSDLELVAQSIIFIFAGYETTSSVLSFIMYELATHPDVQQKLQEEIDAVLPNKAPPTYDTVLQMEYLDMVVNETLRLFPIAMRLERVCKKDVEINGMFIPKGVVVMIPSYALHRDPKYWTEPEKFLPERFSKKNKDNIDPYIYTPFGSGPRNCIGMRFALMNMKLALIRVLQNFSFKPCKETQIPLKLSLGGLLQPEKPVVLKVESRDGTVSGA
Sequence of Voltage-gated inwardly rectifying potassium channel KCNH2 (Q12809 whole entry): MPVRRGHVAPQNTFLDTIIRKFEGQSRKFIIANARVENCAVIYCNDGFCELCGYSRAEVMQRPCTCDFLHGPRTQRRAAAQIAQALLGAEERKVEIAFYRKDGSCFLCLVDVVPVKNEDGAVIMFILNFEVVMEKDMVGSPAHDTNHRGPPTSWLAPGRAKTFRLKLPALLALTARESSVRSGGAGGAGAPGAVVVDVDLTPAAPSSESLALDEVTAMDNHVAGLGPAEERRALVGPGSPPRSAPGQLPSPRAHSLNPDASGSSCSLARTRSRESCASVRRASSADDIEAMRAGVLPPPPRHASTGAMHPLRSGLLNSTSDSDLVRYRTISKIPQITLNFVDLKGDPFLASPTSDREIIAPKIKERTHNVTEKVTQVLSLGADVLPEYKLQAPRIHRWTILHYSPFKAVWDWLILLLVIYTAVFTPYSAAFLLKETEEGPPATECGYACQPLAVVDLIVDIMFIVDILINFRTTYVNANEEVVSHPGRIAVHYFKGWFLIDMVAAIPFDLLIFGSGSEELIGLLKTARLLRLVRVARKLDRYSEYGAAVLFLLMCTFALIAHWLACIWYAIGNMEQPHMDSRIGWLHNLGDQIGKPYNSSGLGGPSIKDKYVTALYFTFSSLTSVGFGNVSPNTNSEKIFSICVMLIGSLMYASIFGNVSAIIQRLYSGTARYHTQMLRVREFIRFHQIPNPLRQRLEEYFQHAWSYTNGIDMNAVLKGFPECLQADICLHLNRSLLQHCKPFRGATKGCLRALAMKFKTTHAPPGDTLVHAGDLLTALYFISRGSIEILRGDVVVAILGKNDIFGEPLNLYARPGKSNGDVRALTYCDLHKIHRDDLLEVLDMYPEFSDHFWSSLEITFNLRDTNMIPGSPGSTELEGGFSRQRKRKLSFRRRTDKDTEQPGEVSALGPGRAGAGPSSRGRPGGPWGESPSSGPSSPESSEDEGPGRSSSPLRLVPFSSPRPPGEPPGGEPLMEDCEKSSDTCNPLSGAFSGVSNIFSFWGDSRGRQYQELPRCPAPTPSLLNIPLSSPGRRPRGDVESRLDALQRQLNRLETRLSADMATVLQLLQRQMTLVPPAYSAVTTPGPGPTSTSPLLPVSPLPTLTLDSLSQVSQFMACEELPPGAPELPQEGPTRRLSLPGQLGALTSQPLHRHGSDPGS
Sequence of Acetylcholinesterase (P22303 whole entry): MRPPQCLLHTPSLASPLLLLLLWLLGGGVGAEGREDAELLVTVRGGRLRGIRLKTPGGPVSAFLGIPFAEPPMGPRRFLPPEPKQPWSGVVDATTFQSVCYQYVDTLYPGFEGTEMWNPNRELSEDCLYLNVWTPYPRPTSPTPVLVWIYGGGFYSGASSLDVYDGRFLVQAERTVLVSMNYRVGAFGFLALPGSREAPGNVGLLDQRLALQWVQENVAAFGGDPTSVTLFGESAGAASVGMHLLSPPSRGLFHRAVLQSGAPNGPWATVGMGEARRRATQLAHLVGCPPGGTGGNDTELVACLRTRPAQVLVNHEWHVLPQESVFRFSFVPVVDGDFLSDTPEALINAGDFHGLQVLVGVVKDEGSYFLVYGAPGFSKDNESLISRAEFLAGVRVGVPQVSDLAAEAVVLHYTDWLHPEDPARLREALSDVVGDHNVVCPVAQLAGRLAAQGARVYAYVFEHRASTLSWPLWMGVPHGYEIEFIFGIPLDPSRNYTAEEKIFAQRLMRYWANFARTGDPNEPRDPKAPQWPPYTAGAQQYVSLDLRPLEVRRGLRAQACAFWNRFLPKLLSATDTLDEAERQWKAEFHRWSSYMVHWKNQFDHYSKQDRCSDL
Sequence of Cytochrome P450 2C19 (P33261 whole entry): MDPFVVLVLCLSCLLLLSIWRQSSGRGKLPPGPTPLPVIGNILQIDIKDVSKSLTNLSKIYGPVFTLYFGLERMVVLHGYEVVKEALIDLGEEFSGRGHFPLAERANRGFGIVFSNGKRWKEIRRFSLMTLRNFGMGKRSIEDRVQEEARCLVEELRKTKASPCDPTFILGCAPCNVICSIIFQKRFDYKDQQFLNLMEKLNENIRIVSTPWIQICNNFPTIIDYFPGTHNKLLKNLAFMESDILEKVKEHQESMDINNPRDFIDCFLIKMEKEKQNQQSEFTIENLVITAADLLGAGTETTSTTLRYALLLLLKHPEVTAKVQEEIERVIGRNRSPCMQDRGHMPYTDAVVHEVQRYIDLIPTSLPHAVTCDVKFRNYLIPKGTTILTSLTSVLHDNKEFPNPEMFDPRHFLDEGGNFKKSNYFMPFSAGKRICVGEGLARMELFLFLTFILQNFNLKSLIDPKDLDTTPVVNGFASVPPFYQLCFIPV

O=c1[nH]cc(F)c(=O)[nH]1 [FLUOROURACIL]
Not Active: IC50 [1] | Ki [1] | IC50 (Vasopressin V1a receptor) | IC50 (Cytochrome P450 2C19) | Ki (Cytochrome P450 2C19) | IC50 (Cytochrome P450 3A4) | Ki (Cytochrome P450 3A4) | IC50 [2] | IC50 (Cytochrome P450 1A2) | Ki (Cytochrome P450 1A2) | IC50 (Acetylcholinesterase) | IC50 (Cytochrome P450 2A6) | Ki (Cytochrome P450 2A6) | IC50 (Thromboxane-A synthase) | IC50 (Carbonic anhydrase 2)

COc1ccc2cc(CC(=O)O)ccc2c1
Not Active: IC50 [1] | Ki [1] | IC50 (Vasopressin V1a receptor) | IC50 (Cytochrome P450 2C19) | Ki (Cytochrome P450 2C19) | IC50 (Cytochrome P450 3A4) | Ki (Cytochrome P450 3A4) | IC50 [2] | IC50 (Cytochrome P450 1A2) | Ki (Cytochrome P450 1A2) | IC50 (Acetylcholinesterase) | IC50 (Cytochrome P450 2A6) | Ki (Cytochrome P450 2A6) | IC50 (Thromboxane-A synthase) | IC50 (Carbonic anhydrase 2)

CC[C@@]1(O)C(=O)OCc2c1cc1n(c2=O)Cc2cc3ccccc3nc2-1 [CAMPTOTHECIN]
Not Active: IC50 [1] | Ki [1] | IC50 (Vasopressin V1a receptor) | IC50 (Cytochrome P450 2C19) | Ki (Cytochrome P450 2C19) | IC50 (Cytochrome P450 3A4) | Ki (Cytochrome P450 3A4) | IC50 [2] | IC50 (Cytochrome P450 1A2) | Ki (Cytochrome P450 1A2) | IC50 (Acetylcholinesterase) | IC50 (Cytochrome P450 2A6) | Ki (Cytochrome P450 2A6) | IC50 (Thromboxane-A synthase) | IC50 (Carbonic anhydrase 2)

NCC1(CC(=O)O)CCCCC1 [GABAPENTIN]
Not Active: IC50 [1] | Ki [1] | IC50 (Vasopressin V1a receptor) | IC50 (Cytochrome P450 2C19) | Ki (Cytochrome P450 2C19) | IC50 (Cytochrome P450 3A4) | Ki (Cytochrome P450 3A4) | IC50 [2] | IC50 (Cytochrome P450 1A2) | Ki (Cytochrome P450 1A2) | IC50 (Acetylcholinesterase) | IC50 (Cytochrome P450 2A6) | Ki (Cytochrome P450 2A6) | IC50 (Thromboxane-A synthase) | IC50 (Carbonic anhydrase 2)

CN1C(C(=O)Nc2ccccn2)=C(O)c2ccccc2S1(=O)=O [PIROXICAM]
Not Active: IC50 [1] | Ki [1] | IC50 (Vasopressin V1a receptor) | IC50 (Cytochrome P450 2C19) | Ki (Cytochrome P450 2C19) | IC50 (Cytochrome P450 3A4) | Ki (Cytochrome P450 3A4) | IC50 [2] | IC50 (Cytochrome P450 1A2) | Ki (Cytochrome P450 1A2) | IC50 (Acetylcholinesterase) | IC50 (Cytochrome P450 2A6) | Ki (Cytochrome P450 2A6) | IC50 (Thromboxane-A synthase) | IC50 (Carbonic anhydrase 2)

C=C1[C@@H]2CCC3[C@@](CC[C@@H]4[C@H](C(=O)O)C[C@@H](O[C@@H]5O[C@H](CO)[C@@H](OS(=O)(=O)[O-])[C@H](OS(=O)(=O)[O-])[C@H]5OC(=O)CC(C)C)C[C@@]34C)(C2)[C@@H]1O.[K+].[K+] (stereo not given in full) [ATRACTYLOSIDE]
Not Active: IC50 [1] | Ki [1] | IC50 (Vasopressin V1a receptor) | IC50 (Cytochrome P450 2C19) | Ki (Cytochrome P450 2C19) | IC50 (Cytochrome P450 3A4) | Ki (Cytochrome P450 3A4) | IC50 [2] | IC50 (Cytochrome P450 1A2) | Ki (Cytochrome P450 1A2) | IC50 (Acetylcholinesterase) | IC50 (Cytochrome P450 2A6) | Ki (Cytochrome P450 2A6) | IC50 (Thromboxane-A synthase) | IC50 (Carbonic anhydrase 2)

C=C1CC[C@H](O)C/C1=C/C=C1\CCC[C@]2(C)[C@@H]([C@H](C)/C=C/[C@H](C)C(C)C)CC[C@@H]12 [ERGOCALCIFEROL]
Not Active: IC50 [1] | Ki [1] | IC50 (Vasopressin V1a receptor) | IC50 (Cytochrome P450 2C19) | Ki (Cytochrome P450 2C19) | IC50 (Cytochrome P450 3A4) | Ki (Cytochrome P450 3A4) | IC50 [2] | IC50 (Cytochrome P450 1A2) | Ki (Cytochrome P450 1A2) | IC50 (Acetylcholinesterase) | IC50 (Cytochrome P450 2A6) | Ki (Cytochrome P450 2A6) | IC50 (Thromboxane-A synthase) | IC50 (Carbonic anhydrase 2)

CCc1cccc2c3c([nH]c12)C(CC)(CC(=O)O)OCC3 (stereo not given) [ETODOLAC]
Not Active: IC50 [1] | Ki [1] | IC50 (Vasopressin V1a receptor) | IC50 (Cytochrome P450 2C19) | Ki (Cytochrome P450 2C19) | IC50 (Cytochrome P450 3A4) | Ki (Cytochrome P450 3A4) | IC50 [2] | IC50 (Cytochrome P450 1A2) | Ki (Cytochrome P450 1A2) | IC50 (Acetylcholinesterase) | IC50 (Cytochrome P450 2A6) | Ki (Cytochrome P450 2A6) | IC50 (Thromboxane-A synthase) | IC50 (Carbonic anhydrase 2)
